Source: WO2020032435A1 (priority 2018, dated 2019)

Key:
[1] = test system: human dermal papilla cells; test: Cell proliferation of human dermal papilla cells, MTT assay; conditions: 24 h, read-out: proliferation rate increase
VEGF [2] = test: VEGF mRNA expression in human dermal papilla cells, RT-PCR; type: cell-based; conditions: Human dermal papilla cell, 24 hours, read-out: increase in mRNA expression of VEGF
cAMP = cAMP concentration in human dermal papilla cells, ELISA; type: cell-based; conditions: Human dermal papilla cell, 24 hours, DMSO negative control, read-out: increase in cAMP concentration
IGF-1 = IGF-1 concentration in culture medium of human dermal papilla cells, ELISA; type: cell-based; conditions: Human dermal papilla cell, 24 hours, DMSO negative control, read-out: increase in IGF-1 concentration
LEF = LEF mRNA expression in human dermal papilla cells, RT-PCR; type: cell-based; conditions: Human dermal papilla cell, 24 hours, read-out: increase in mRNA expression of LEF
VEGF [3] = test: VEGF concentration in culture medium of human dermal papilla cells, ELISA; type: cell-based; conditions: Human dermal papilla cell, 24 hours, DMSO negative control, read-out: increase in VEGF concentration
cycD = test: Cyclin D mRNA expression in human dermal papilla cells, RT-PCR; type: cell-based; conditions: Human dermal papilla cell, 24 hours, read-out: increase in mRNA expression of cycD
IGF = test: IGF-1 mRNA expression in human dermal papilla cells, RT-PCR; type: cell-based; conditions: Human dermal papilla cell, 24 hours, read-out: increase in mRNA expression of IGF

**Q.** What does the source list for `COc1ccc2ccccc2c1` [Yarayara, 2-methoxynaphthalene]?
**A.** activation at 10 µM [1]: 10.6%; activation at 20 µM [1]: 37%; activation at 50 µM [1]: 28%; activation at 20 µM (VEGF [2]): 274%; activation at 20 µM (cAMP): 47%; activation at 20 µM (IGF-1): 22%; activation at 20 µM (LEF): 340%; activation at 20 µM (VEGF [3]): 30%; activation at 20 µM (cycD): 262%; activation at 20 µM (IGF): 270%
